# From patent US20130004424A1, “METHODS FOR DETERMINING AGENTS TARGETING MENA ISOFORMS AND USES THEREOF FOR DIAGNOSIS AND TREATMENT OF METASTATIC TUMORS” (priority 2010, published 2013)
# How the values were obtained:
# Mena^INV cells [1] = experiment: in vivo invasion assay, collection needle containing EGF and erlotinib; settings: Mena^INV cells vs MTLn3-EGFP control cells; collection needle contained both EGF and erlotinib
# Excerpt: (B) Graphic of in vivo assay with needle collection. Primary tumor may be xenograft.
# Collection needle contained both EGF and erlotinib. MTLn3-EGFP cells are control. **p<0.01, ***p<0.001.
# Since cells expressing Mena^+ or Mena^INV/+ will move up an EGF gradient, when the cells expressing Mena^+ or Mena^INV/+ are in vivo, the cells expressing Mena^+ or Mena^INV/+ will move up the imposed EGF gradient and can be needle collected. If the putative agent does in fact inhibit Mena^+ or Mena^INV/+, the sensitivity of cells expressing Mena^+ or Mena^INV/+ drops and fewer cells will move up the EGF gradient.
# Mena^INV cells [2] = settings: both in vitro and in vivo; cited from earlier work
compound,measurement,setting,value
C#Cc1cccc(Nc2ncnc3cc(OCCOC)c(OCCOC)cc23)c1 [erlotinib],sensitivity of in vivo invasion to inhibition by erlotinib,Mena^INV cells [1],less sensitive to inhibition
same,resistance of cells to EGFR inhibitor,Mena^INV cells [2],exhibit resistance
